Measured values: article PMC2637922, “Active-Site Inhibitors of mTOR Target Rapamycin-Resistant Outputs of mTORC1 and mTORC2” (PLoS Biology, 2009)
pIC50: −log10 of the molar value. One block for each compound: values may come before it.

Assays:
[1] = test system: Akt substrates GSK3α/β, TSC2, and FoxO1/O3a in L6 myotubes; assay: Akt substrate phosphorylation in L6 myotubes (Western blot); assay type: cell-based; details: for phosphorylation of Akt and its substrates: insulin
[2] = test system: Akt phosphorylation in SIN1−/− MEFs; assay: Akt phosphorylation in primary SIN1−/− MEFs (Western blot); assay type: cell-based, mouse; details: insulin, PIK-90 625 nM, BX-795 10 μM
[3] = test system: S6K, S6 and 4EBP1 phosphorylation in L6 myotubes; assay: mTORC1 substrate phosphorylation in L6 myotubes (Western blot); details: Figure S3
PKC-beta = PKC-beta (Homo sapiens, UniProt P05771); details: in vitro, purified protein
PDK1 = biological target: T1, PDK1 (Homo sapiens, UniProt O15530); assay: biochemical
T1 sequence (O15530 1-556): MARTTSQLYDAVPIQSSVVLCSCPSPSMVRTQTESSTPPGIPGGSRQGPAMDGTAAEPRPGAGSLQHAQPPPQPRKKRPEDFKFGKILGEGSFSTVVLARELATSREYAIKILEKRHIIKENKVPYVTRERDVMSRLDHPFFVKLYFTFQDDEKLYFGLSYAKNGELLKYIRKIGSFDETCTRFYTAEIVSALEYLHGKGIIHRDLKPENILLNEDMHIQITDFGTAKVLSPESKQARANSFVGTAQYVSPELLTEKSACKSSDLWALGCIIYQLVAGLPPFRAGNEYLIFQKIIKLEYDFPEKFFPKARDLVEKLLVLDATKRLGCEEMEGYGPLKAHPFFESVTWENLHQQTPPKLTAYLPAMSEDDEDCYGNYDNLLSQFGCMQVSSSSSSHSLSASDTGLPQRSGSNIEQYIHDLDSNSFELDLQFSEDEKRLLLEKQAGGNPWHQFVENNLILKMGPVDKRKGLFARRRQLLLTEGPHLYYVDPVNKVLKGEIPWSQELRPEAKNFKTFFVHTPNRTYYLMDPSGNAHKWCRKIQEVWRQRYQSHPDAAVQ

PKCβI = PKCβI (Homo sapiens, UniProt P05771); assay: biochemical
PKCβII = PKCβII (Homo sapiens, UniProt P05771); assay: biochemical
[4] = test system: pT308 of S473A Akt in HEK293 cells; assay type: cell-based; details: HEK293, insulin, 2.5 μM PP242
[5] = test system: new protein synthesis in primary MEFs; assay: 35S labeling of new protein synthesis; assay type: cell-based, mouse; details: overnight
Description: Primary MEFs grown to 70% confluence in six-well plates were incubated overnight in either 10% Serum (Steady State), kinase inhibitors in 10% serum, or 0.1% serum (starved). Cells were then washed once with DMEM lacking cysteine and methionine (DMEM-noS), and the medium was replaced with DMEM-noS including dialyzed serum and kinase inhibitors as indicated. After incubation for 1 h, 50 μCi of Expre^35S^35S (NEN) was added to each well and the cells were labeled for 4 h. Cells were washed once with ice-cold PBS, and lysed as described above for Western blotting. Following separation by SDS-PAGE, and transfer to nitrocellulose, ^35S-labeled proteins were visualized by autoradiography with film. For quantitation, the membrane was exposed to a phosphorimager screen and the resulting image was quantified in ImageJ. Differences in ^35S incorporation were analyzed for statistical significance by one-way ANOVA with Tukey's post test using the Prism software package.

[6] = test system: Akt, S6 and 4EBP1 phosphorylation in fat, skeletal muscle, and liver; assay: In vivo drug treatment and Western blotting of insulin signaling; set-up: species or system C57BL/6 mice; details: mice; for S6 phosphorylation, all tissues examined / phosphorylation of 4EBP1 on T36/45 and S65, all tissues examined: rapamycin 5 mg/kg or PP242 20 mg/kg IP
Description: Drugs were prepared in 100 μl of vehicle containing 20% DMSO, 40% PEG-400, and 40% saline. Six-wk-old male C57BL/6 mice were fasted overnight prior to drug treatment. […] 15 min after the insulin injection, the mice were killed by CO2 asphyxiation followed by cervical dislocation. Tissues were harvested and frozen on liquid nitrogen in 200 μl of cap lysis buffer. The frozen tissue was thawed on ice, manually disrupted with a mortar and pestle, and then further processed with a micro tissue-homogenizer (Fisher PowerGen 125 with Omni-Tip probe). Protein concentration of the cleared lysate was measured by Bradford assay and 5–10 μg of protein was analyzed by Western blot as described above.

[7] = test system: Akt phosphorylation in wild-type MEFs; assay: Akt phosphorylation in primary wild-type MEFs (Western blot); assay type: cell-based, mouse; details: long-term rapamycin (100 nM, 24 h)
primary wild-type MEFs = assay: Cell proliferation assay (resazurin), wild-type MEFs; assay type: cell-based, mouse; details: cultured 3 d, resazurin fluorescence
[8] = test system: 4EBP1 bound to eIF4E in L6 myotube lysates; assay: Cap pull-down assay (m7GTP beads); assay type: cell-based
[9] = test system: cap-dependent and IRES-dependent translation in primary MEFs; assay: Bicistronic reporter assay; assay type: cell-based, mouse; details: overnight, 10% serum
SIN1−/− MEFs = assay: Cell proliferation assay (resazurin), SIN1−/− MEFs; details: compared with PP242

PKCβII, sequence (P05771 1-673 isoform P05771-2): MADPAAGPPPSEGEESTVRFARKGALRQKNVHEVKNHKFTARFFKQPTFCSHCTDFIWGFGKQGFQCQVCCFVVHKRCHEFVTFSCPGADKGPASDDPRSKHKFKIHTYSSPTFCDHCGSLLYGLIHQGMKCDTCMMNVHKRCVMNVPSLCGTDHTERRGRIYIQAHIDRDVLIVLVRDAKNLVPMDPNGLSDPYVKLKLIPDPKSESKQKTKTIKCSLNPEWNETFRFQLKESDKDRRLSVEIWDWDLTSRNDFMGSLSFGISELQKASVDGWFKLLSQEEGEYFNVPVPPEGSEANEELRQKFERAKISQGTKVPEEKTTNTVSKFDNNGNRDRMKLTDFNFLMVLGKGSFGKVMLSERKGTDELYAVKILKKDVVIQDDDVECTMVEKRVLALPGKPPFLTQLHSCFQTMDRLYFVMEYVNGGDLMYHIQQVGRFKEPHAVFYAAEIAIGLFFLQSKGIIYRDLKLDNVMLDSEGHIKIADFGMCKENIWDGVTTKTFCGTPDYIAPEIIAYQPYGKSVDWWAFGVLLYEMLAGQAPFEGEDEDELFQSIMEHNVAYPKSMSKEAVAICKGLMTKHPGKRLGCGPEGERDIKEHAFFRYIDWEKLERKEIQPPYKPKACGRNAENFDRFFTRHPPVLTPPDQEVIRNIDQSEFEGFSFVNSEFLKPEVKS
PKCβI, sequence (P05771 whole entry): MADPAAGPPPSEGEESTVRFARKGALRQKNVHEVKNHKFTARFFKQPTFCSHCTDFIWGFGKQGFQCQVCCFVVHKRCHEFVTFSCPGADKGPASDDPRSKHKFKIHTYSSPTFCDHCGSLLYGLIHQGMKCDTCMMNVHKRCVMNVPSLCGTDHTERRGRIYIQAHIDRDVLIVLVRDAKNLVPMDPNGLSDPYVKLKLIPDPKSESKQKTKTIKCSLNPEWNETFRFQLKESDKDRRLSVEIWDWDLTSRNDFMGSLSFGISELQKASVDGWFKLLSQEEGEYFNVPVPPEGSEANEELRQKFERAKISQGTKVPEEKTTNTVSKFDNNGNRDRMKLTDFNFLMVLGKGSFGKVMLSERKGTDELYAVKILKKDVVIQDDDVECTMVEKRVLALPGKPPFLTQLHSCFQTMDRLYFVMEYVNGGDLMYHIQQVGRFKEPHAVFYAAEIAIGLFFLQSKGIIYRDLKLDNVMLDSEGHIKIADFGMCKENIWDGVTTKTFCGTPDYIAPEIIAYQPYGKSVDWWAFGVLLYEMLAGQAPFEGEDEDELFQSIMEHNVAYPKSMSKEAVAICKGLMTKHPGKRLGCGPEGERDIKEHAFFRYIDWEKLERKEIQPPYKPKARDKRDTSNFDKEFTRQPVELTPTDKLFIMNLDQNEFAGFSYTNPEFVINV
PKC-beta, sequence (P05771 2-621 limits assumed): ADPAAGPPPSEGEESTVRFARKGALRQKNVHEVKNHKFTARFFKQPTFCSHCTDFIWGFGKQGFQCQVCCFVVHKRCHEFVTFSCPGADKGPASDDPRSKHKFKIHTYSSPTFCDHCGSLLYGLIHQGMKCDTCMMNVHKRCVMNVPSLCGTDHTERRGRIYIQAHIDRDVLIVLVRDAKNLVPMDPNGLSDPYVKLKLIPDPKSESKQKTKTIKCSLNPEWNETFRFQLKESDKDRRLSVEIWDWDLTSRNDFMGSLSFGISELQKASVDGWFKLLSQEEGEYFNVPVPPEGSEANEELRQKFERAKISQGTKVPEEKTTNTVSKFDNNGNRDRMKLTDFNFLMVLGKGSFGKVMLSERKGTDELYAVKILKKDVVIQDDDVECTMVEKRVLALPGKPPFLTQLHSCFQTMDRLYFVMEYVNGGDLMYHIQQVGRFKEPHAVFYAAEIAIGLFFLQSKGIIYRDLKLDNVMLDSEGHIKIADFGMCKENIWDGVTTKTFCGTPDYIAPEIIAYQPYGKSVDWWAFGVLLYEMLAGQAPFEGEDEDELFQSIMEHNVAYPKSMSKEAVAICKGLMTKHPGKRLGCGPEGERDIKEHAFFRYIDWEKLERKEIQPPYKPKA

SMILES: O=c1[nH]c2ccccc2n1C1CCN(Cc2ccc(-c3nc4cc5nc[nH]c5cc4nc3-c3ccccc3)cc2)CC1 [Akti-1/2]
FoxO1/O3a phosphorylation at T24/T32 [1]: inhibits
phosphorylation of Akt and its substrates [1]: completely inhibited

SMILES: O=C(NCCCNc1nc(Nc2cccc(NC(=O)N3CCCC3)c2)ncc1I)c1cccs1 [BX-795]
phosphorylation of Akt T308 [2]: blocked

SMILES: COc1ccc2c(c1OC)N=C(NC(=O)c1cccnc1)N1CCN=C21 [PIK-90]
phosphorylation of Akt T308 [2]: blocked
phosphorylation of Akt and its substrates [1]: completely inhibited
phosphorylation of 4EBP1 at T36/45 [3]: did not reduce

activity against PKC-beta (PKC-beta): no activity
pIC50 (PDK1): < 5.00
pIC50 (PKCβI): < 5.00
pIC50 (PKCβII): < 5.00
SMILES: CC(C)n1nc(-c2cccc(C(=O)NC3=NCCS3)c2)c2c(N)ncnc21 [PP30]

SMILES: CC(C)n1nc(-c2cc3cc(O)ccc3[nH]2)c2c(N)ncnc21 [PP242]
T308-P on S473A Akt [4]: not inhibited
phosphorylation of Akt T308 [2]: no effect
reduction of total protein synthesis [5]: about 30%
phosphorylation of Akt at S473 and T308 in fat and liver ([6]; PP242 20 mg/kg IP, insulin): completely inhibit
phosphorylation of Akt in skeletal muscle ([6]; PP242 20 mg/kg IP, insulin): only partially able to inhibit
S6 phosphorylation, all tissues examined [6]: fully inhibited
phosphorylation of 4EBP1 on T36/45 and S65, all tissues examined [6]: effective at blocking

SMILES: CO[C@H]1C[C@@H]2CC[C@@H](C)[C@@](O)(O2)C(=O)C(=O)N2CCCC[C@H]2C(=O)O[C@H]([C@H](C)C[C@@H]2CC[C@@H](O)[C@H](OC)C2)CC(=O)[C@H](C)/C=C(\C)[C@@H](O)[C@@H](OC)C(=O)[C@H](C)C[C@H](C)/C=C/C=C/C=C/1C [rapamycin]
Akt S473-P [7]: inhibited
Akt T308-P [7]: reduced
proliferation of primary MEFs (primary wild-type MEFs): inhibited growth to the same extent
insulin-stimulated release of 4EBP1 from eIF4E (retention on m7GTP beads) [8]: partial inhibition
cap-dependent translation (renilla/firefly ratio) [9]: did not have a statistically significant effect
reduction of total protein synthesis [5]: does not have a significant effect
phosphorylation of Akt at S473 and T308, all tissues examined ([6]; acute rapamycin 5 mg/kg IP, insulin): activated
S6 phosphorylation, all tissues examined [6]: fully inhibited
phosphorylation of 4EBP1 on T36/45 and S65, all tissues examined [6]: did not block 4EBP1 phosphorylation as completely as PP242
blocking cell proliferation of SIN1−/− MEFs (SIN1−/− MEFs): less effective at blocking cell proliferation than PP242
